Columns and labels:
Cbl-b [1] = target: T1, Cbl-b (Homo sapiens, UniProt Q13191); assay: Cbl-b Degradation Method A (FACS, anti-Cbl-b antibody staining); assay type: cell-based; details: Cbl-b-HiBit KI Jurkat Cells, incubated at least 20 hours; for DC50: half maximal degradation, read-out: Cbl-b Degredation Method A IC50; for Dmax: Jurkat, maximum degradation observed, read-out: Cbl-b Degredation Method A Dmax (%)
T1 construct: Cbl-b-HiBit KI Jurkat Cells were purchased from Promega; host or cells: Cbl-b-HiBiT knock-in Jurkat cells
In short: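 Cbl-b-HiBit KI Jurkat cells treated with compound for at least 20 h at 37 °C, then fixed, permeabilized and stained with anti-Cbl-b antibody plus anti-rabbit AF488 secondary. Cbl-b levels read by FACS; DC50 and Dmax (percent of control) derived.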

Cbl-b [2] = target: T1, Cbl-b; assay: Cbl-b Degradation Method B (Nano-Glo HiBiT lytic detection); assay type: cell-based; details: Cbl-b-HiBit KI Jurkat Cells, incubated at least 6-24 hours; for DC50: half maximal degradation, read-out: Cbl-b Degredation Method B IC50; for Dmax / Cbl-b Degredation Method B Dmax (%): maximum degradation observed; for Dmax: read-out: Cbl-b Degredation Method B Dmax (%)
In short: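 Cbl-b-HiBiT knock-in Jurkat cells (20,000/well) were treated after ~24 h plating with an 11-point 1:3 series for 6-24 h at 37° C. Remaining Cbl-b measured by Nano-Glo HiBiT lytic luminescence. DC50 and Dmax expressed as % of control.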

T1 sequence (Q13191 whole entry): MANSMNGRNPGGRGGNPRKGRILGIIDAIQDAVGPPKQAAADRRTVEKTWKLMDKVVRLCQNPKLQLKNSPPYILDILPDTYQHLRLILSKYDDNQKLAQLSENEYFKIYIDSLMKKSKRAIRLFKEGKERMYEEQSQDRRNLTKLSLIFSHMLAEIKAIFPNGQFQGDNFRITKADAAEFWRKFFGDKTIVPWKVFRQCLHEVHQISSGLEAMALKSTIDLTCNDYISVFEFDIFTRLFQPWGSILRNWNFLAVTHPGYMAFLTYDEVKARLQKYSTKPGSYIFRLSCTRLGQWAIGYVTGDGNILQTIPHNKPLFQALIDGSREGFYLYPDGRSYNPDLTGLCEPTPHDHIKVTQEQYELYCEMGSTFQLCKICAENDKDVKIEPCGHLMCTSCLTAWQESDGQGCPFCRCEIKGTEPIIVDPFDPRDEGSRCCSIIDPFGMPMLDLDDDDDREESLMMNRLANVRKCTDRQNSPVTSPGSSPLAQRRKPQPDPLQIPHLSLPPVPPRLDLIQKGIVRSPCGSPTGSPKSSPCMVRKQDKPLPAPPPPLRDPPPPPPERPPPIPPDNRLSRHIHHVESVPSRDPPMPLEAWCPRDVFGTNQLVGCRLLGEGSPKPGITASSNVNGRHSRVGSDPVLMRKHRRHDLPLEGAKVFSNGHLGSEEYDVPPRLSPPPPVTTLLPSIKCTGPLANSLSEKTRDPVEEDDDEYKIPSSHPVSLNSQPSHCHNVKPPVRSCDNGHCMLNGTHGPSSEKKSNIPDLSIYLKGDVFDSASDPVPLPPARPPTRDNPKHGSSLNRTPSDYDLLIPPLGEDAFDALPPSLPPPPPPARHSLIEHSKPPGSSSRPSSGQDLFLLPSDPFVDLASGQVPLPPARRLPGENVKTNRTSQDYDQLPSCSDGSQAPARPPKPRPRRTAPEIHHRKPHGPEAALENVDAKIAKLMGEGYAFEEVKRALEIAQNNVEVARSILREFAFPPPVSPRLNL

Row | Compound | DC50 (Cbl-b [1]) [nM] | Dmax (Cbl-b [1]) [%] | DC50 (Cbl-b [2]) [nM] | Dmax (Cbl-b [2]) [%] | Cbl-b Degredation Method B Dmax (%) (Cbl-b [2])
1 | Cn1cnnc1CC1(c2cccc(N3Cc4c(cc(N5CCC6(CCN(c7ccc8c(c7)C(=O)N(C7CCC(=O)NC7=O)C8=O)CC6)CC5)cc4C(F)(F)F)C3=O)c2)COC1 (stereo not drawn) [Example 125, 2-(2,6-dioxopiperidin-3-yl)-5-{9-[2-(3-{3-[(4-methyl-4H-1,2,4-triazol-3-yl)methyl]oxetan-3-yl}phenyl)-3-oxo-7-(trifluoromethyl)-2,3-dihydro-1H-isoindol-5-yl]-3,9-diazaspiro[5.5]undecan-3-yl}-2,3-dihydro-1H-isoindole-1,3-dione] | > 500 |  | > 500 |  | 
2 | Cn1cnnc1CC1(c2cccc(N3Cc4c(cc(CN5CCC(COCCOCCOc6cccc7c6C(=O)N(C6CCC(=O)NC6=O)C7=O)CC5)cc4C(F)(F)F)C3=O)c2)COC1 (stereo not drawn) [Example 91, 2-(2,6-dioxopiperidin-3-yl)-4-(2-{2-[(1-{[2-(3-{3-[(4-methyl-4H-1,2,4-triazol-3-yl)methyl]oxetan-3-yl}phenyl)-3-oxo-7-(trifluoromethyl)-2,3-dihydro-1H-isoindol-5-yl]methyl}piperidin-4-yl)methoxy]ethoxy}ethoxy)-2,3-dihydro-1H-isoindole-1,3-dione] | > 500 |  | > 500 |  | 
3 | Cn1cnnc1CC1(c2cccc(NC(=O)c3cc(CN4CCC[C@H](CN5CCC(CN6CCN(c7ccc8c(c7)C(=O)N(C7CCC(=O)NC7=O)C8=O)CC6)CC5)C4)nc(C4CC4)n3)c2)COC1 (stereo partly drawn) [Example 19, 2-cyclopropyl-6-[[(3R)-3-[[4-[[4-[2-(2,6-dioxo-3-piperidyl)-1,3-dioxo-isoindolin-5-yl]piperazin-1-yl]methyl]-1-piperidyl]methyl]-1-piperidyl]methyl]-N-[3-[3-[(4-methyl-1,2,4-triazol-3-yl)methyl]oxetan-3-yl]phenyl]pyrimidine-4-carboxamide] | 50 to 500 |  | < 5 | < 35 | 
4 | Cn1cnnc1CC1(c2cccc(N3Cc4c(cc(N5CCC(CN6CCC7(CC6)CN(c6ccc8c(c6)C(=O)N(C6CCC(=O)NC6=O)C8=O)C7)CC5)cc4C(F)(F)F)C3=O)c2)COC1 (stereo not drawn) [Example 23, 2-(2,6-dioxopiperidin-3-yl)-5-[7-({1-[2-(3-{3-[(4-methyl-4H-1,2,4-triazol-3-yl)methyl]oxetan-3-yl}phenyl)-3-oxo-7-(trifluoromethyl)-2,3-dihydro-1H-isoindol-5-yl]piperidin-4-yl}methyl)-2,7-diazaspiro[3.5]nonan-2-yl]-2,3-dihydro-1H-isoindole-1,3-dione] | 50 to 500 | < 35 | > 500 |  | 

The next lines start with the values.

Row | DC50 (Cbl-b [1]) [nM] | Dmax (Cbl-b [1]) [%] | DC50 (Cbl-b [2]) [nM] | Dmax (Cbl-b [2]) [%] | Cbl-b Degredation Method B Dmax (%) (Cbl-b [2]) | Compound
5 | < 5 | > 70 | < 5 | 35 to 70 |  | Cn1cnnc1C[C@]1(c2cccc(N3Cc4c(cc(CN5CCN(C[C@H]6CC[C@H](OC7CCN(c8ccc9c(c8F)CN(C8CCC(=O)NC8=O)C9=O)CC7)CC6)CC5)cc4C(F)(F)F)C3=O)c2)C[C@H](C#N)C1 (stereo partly drawn) [Example 167, (1r,3r)-3-[(4-methyl-4H-1,2,4-triazol-3-yl)methyl]-3-(3-{1-oxo-6-[(4-{[(1r,4r)-4-({1-[2-(2,6-dioxopiperidin-3-yl)-4-fluoro-1-oxo-2,3-dihydro-1H-isoindol-5-yl]piperidin-4-yl}oxy)cyclohexyl]methyl}piperazin-1-yl)methyl]-4-(trifluoromethyl)-2,3-dihydro-1H-isoindol-2-yl}phenyl)cyclobutane-1-carbonitrile]
6 | 50 to 500 | 35 to 70 | < 5 |  | C (C ≤ 35) | Cn1cnnc1CC1(c2cccc(N3Cc4c(cc(CN5CCN(C[C@H]6CC[C@H](OC7CCN(c8cccc9c8CC(=O)N9C8CCC(=O)NC8=O)CC7)CC6)CC5(C)C)cc4C(F)(F)F)C3=O)c2)CC(C#N)C1 (stereo partly drawn) [Example 315, (1r**,3r**)-3-(3-{6-[(2,2-dimethyl-4-{[(1r*,4r*)-4-({1-[1-(2,6-dioxopiperidin-3-yl)-2-oxo-2,3-dihydro-1H-indol-4-yl]piperidin-4-yl}oxy)cyclohexyl]methyl}piperazin-1-yl)methyl]-1-oxo-4-(trifluoromethyl)-2,3-dihydro-1H-isoindol-2-yl}phenyl)-3-[(4-methyl-4H-1,2,4-triazol-3-yl)methyl]cyclobutane-1-carbonitrile]
7 | 50 to 500 | 35 to 70 | < 5 |  | C (C ≤ 35) | C[C@@H]1c2nc(N3CCC(O[C@H]4CC[C@H](CN5CCN(Cc6cc7c(c(C(F)(F)F)c6)CN(c6cccc(C8(Cc9nncn9C)CC(C#N)C8)c6)C7=O)C6(CC6)C5)CC4)CC3)ccc2C(=O)N1C1CCC(=O)NC1=O (single isomer, unassigned) [Example 304, (1r***,3r***)-3-[(4-methyl-4H-1,2,4-triazol-3-yl)methyl]-3-(3-{1-oxo-6-[(7-{[(1r**,4r**)-4-({1-[(7R*)-6-(2,6-dioxopiperidin-3-yl)-7-methyl-5-oxo-5H,6H,7H-pyrrolo[3,4-b]pyridin-2-yl]piperidin-4-yl}oxy)cyclohexyl]methyl}-4,7-diazaspiro[2.5]octan-4-yl)methyl]-4-(trifluoromethyl)-2,3-dihydro-1H-isoindol-2-yl}phenyl)cyclobutane-1-carbonitrile]
8 | 5 to 50 | 35 to 70 | < 5 | 35 to 70 |  | CC1c2nc(N3CCC(O[C@H]4CC[C@H](CN5C[C@@H]6C[C@H]5CN6Cc5cc6c(c(C(F)(F)F)c5)CN(c5cccc([C@]7(Cc8nncn8C)C[C@H](C#N)C7)c5)C6=O)CC4)CC3)ccc2C(=O)N1C1CCC(=O)NC1=O (stereo partly drawn) [Example 214, (1r,3r)-3-[(4-methyl-4H-1,2,4-triazol-3-yl)methyl]-3-[3-(1-oxo-6-{[(1S,4S)-5-{[(1r,4r)-4-({1-[6-(2,6-dioxopiperidin-3-yl)-7-methyl-5-oxo-5H,6H,7H-pyrrolo[3,4-b]pyridin-2-yl]piperidin-4-yl}oxy)cyclohexyl]methyl}-2,5-diazabicyclo[2.2.1]heptan-2-yl]methyl}-4-(trifluoromethyl)-2,3-dihydro-1H-isoindol-2-yl)phenyl]cyclobutane-1-carbonitrile]
9 | 5 to 50 | 35 to 70 | 5 to 50 | 35 to 70 |  | Cn1cnnc1CC1(c2cccc(N3Cc4c(cc(N5CCN(C[C@H]6CC[C@H](OC7CCN(c8ccc9c(c8F)CN(C8CCC(=O)NC8=O)C9=O)CC7)CC6)CC5)cc4C(F)(F)F)C3=O)c2)COC1 (stereo partly drawn) [Example 139, 3-[4-fluoro-1-oxo-5-(4-{[(1r,4r)-4-({4-[2-(3-{3-[(4-methyl-4H-1,2,4-triazol-3-yl)methyl]oxetan-3-yl}phenyl)-3-oxo-7-(trifluoromethyl)-2,3-dihydro-1H-isoindol-5-yl]piperazin-1-yl}methyl)cyclohexyl]oxy}piperidin-1-yl)-2,3-dihydro-1H-isoindol-2-yl]piperidine-2,6-dione]

— patent US20260184710A1, “CASITAS B-LINEAGE LYMPHOMA PROTOONCOGENE B (CBL-B) DEGRADING COMPOUNDS AND ASSOCIATED METHODS OF USE” (Arvinas Operations, Inc., priority 2022, published 2026)
